Results published in US20250382250A1, “STILBENE DERIVATIVE AS AHR AGONIST AND USE THEREOF” (NANJING GRITPHARMACO., LTD., priority 2022, published 2025).

Columns and labels:
AhR = molecular target: T1, AhR (Homo sapiens, UniProt P35869); assay: AhR agonism luciferase reporter gene assay in transfected HepG2 cells; format: cell-based; conditions: 16 h, ratio of treatment group to blank
T1 construct: expressed in transfected cells; host or cells: HepG2
T1 sequence (P35869 11-848): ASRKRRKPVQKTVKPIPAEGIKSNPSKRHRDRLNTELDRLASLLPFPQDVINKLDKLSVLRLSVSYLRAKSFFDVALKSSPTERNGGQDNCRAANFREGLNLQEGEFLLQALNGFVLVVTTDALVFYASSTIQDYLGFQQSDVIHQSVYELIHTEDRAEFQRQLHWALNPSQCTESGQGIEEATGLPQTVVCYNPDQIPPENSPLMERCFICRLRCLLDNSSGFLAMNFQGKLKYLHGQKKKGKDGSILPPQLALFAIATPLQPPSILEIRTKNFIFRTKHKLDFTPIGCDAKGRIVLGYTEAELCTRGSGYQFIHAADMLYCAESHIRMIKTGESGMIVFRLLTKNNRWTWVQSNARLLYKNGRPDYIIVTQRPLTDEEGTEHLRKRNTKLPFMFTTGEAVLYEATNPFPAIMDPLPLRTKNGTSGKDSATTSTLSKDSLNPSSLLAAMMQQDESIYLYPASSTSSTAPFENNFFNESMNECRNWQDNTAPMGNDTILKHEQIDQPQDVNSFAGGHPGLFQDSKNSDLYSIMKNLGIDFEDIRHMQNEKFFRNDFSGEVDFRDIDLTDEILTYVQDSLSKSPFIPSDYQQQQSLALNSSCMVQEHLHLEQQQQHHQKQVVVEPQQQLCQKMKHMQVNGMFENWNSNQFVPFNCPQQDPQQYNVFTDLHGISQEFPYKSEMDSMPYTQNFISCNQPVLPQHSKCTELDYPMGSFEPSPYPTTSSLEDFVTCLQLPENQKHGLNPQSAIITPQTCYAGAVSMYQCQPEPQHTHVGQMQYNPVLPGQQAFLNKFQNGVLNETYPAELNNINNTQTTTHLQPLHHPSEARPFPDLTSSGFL
Procedure: When the cell confluence reached 80%, the culture medium was replaced with a fresh one, and the transfection working solution was added for transfection overnight. The formula of the working solution is as follows: 1 mL of Opti-MEM+7.5 μg of pCMV-AHR+7.5 μg of pTK-3×DRE-Luc+30 μL of lipo6000. • (2) Cell plating: The transfected cells were digested, prepared into a cell suspension at a concentration of 3×10^5 cells/mL, and then plated on a 96-well plate at 100 µL/well for adherent culture overnight. • (3) Formulation
The prepared drug-containing culture media and a blank culture medium were added to the 96-well plate described above at 100 μL/well.

TNFa = assay: Regulatory effect on cytokine secretion in PHA-stimulated PBMCs: TNFa; format: cell-based; conditions: for TNFa: PBMCs, 15 μg/mL PHA, 24 h (PHA group 3649.21)
Procedure: (§1) • (1) Cells: […]; • (2) Cell plating and treatment: After the PBMCs were taken out from the liquid nitrogen tank and thawed, 80 μL of culture medium was added to a 96-well plate, and the cells were added at 200,000 cells/well. The culture media containing 2 μM or 0.2 μM compound 2 #, compound 6 #, or reference 1 # were added to the 96-well plate at 80 μL, at a final drug concentration of 1 μM or 0.1 μM per well. The plate was let stand for 1 h for pretreatment. After the pretreatment, the drug-containing medium was discarded, and 1 μM or 0.1 μM solution containing 15 μg/mL PHA (phytohemaggluyinin) was added at 80 μL/well. After 24 h of stimulation, the content of cytokines in the culture medium was detected. • Blank control group: The cells were treated with a normal culture medium with no drugs; • PHA group: A culture medium containing 15 μg/mL PHA but no compounds of the present disclosure was added at 80 μL/well.

IL4 = assay: Regulatory effect on cytokine secretion in PHA-stimulated PBMCs: IL4; format: cell-based; conditions: for IL4: PBMCs, 15 μg/mL PHA, 24 h (PHA group 9.42)
Procedure: as §1

DSS-induced colitis = DSS-induced colitis mouse model; format: in vivo, C57BL/6 mice; conditions: 10 mg/kg intragastric, DSS 2.5% 8 days; for effect on colon length: day 9
Procedure: • (1) Animals: 40 C57BL/6 mice, male, aged 8 weeks, 22-24 g • (2) Materials: […] Biomedicals, USA, Cat. No. […] Tween 80; Wahaha purified water • (3) Procedures: […] The solution was inspected daily and replaced with fresh DSS solution when necessary. On day one after modeling, the treatment was given. […] On day 9, the mice were sacrificed, and the blood and colon were collected. The colon length, occult blood in the cecal contents, and other conditions were also recorded. Test compound formulation: 1.00 mg of compound powder was dissolved in 20 μL of DMSO completely. Then, 20 μL of Tween 80 was added, and the mixture was well mixed. 0.96 mL of Wahaha purified water was added, and the mixture was well mixed to give a 1 mg/mL solution, which was administered at a dose of 0.1 mL/10 g (body weight). Solvent: 20 μL of DMSO, 20 μL of Tween 80, and 0.96 mL of Wahaha purified water were mixed well (used in the modeling group).

[1] = Drug permeation rate test, in vitro diffusion through semipermeable membrane; format: in vitro ADME; conditions: ointments: 2# 1.2 wt %, 6# 1.2 wt %, benvitimod 1.0 wt %, 32° C.
Procedure: Test compounds: compound 2 #ointment, 1.2 wt %; compound 6 #ointment, 1.2 wt %; benvitimod ointment, 1.0 wt %;
[drawing 90] • (1) Preparation of semipermeable membrane: The semipermeable membrane, which had been prepared in advance, was taken out from the refrigerator; • (2) Preparation of receiving liquid: 100 mL of polyethylene glycol 400 solution was brought to a final volume of 250 mL with normal saline. The mixture was mixed well and stored at 4° C. Before each permeation in the receiving compartment, the system was preheated to 32° C.; • (3) In vitro diffusion test: A drug transdermal diffusion apparatus was used to fix the processed semipermeable membrane between the supply and receiving compartments. A constant temperature water bath circulation at 32° C. was maintained. The system was equilibrated for 30 min. Upon each replacement of the receiving liquid, the air at the lower layer was exhausted. About 0.5 g of the ointment was evenly smeared in the supply compartment. The system was stirred with a magnetic stirring at a rotation speed of 600 r/min. At 0.5, 1, 2, 4, 6, and 24 h, 1 mL of sample liquid was taken out from the receiving compartment, and simultaneously, an equal amount of fresh receiving liquid at the same temperature was added;
The sampling time points were 0.5, 1, 2, 4, 6, and 24 h, and 1 mL of sample was directly transferred into a liquid phase vial. Simultaneously, an equal amount of fresh receiving liquid at the same temperature was added. The liquid phase detection was conducted to calculate the drug permeation rate.

AhR receptor agonistic fold (AhR; drug concentration 0.1 μM)	AhR receptor agonistic fold (AhR; drug concentration 1 μM)	24-hour drug permeation rate (rank order) [1]	Compound	TNFa (TNFa; 0.1 μM)	inhibitory effect on TNFa relative to reference 1# (benvitimod) (TNFa; 1 μM)	TNFa (TNFa; 1 μM)	IL4 (IL4; 0.1 μM)	inhibitory effect on IL4 relative to reference 1# (benvitimod) (IL4; 1 μM)	IL4 (IL4; 1 μM)	disease activity indicator (body weight change and hematochezia) (DSS-induced colitis)	effect on colon length (DSS-induced colitis)
6.6 ± 0.1 fold	25.9 ± 0.4 fold	benvitimod >2 #>6 #	Oc1cc(/C=C/c2ccc(F)cc2)cc(O)c1C1CCCCC1 [Compound 6, (E)-2-cyclohexyl-5-(4-fluorostyryl)-1,3-benzenediol]	1433.29 pg/mL	2 folds	810.71 pg/mL	4.62 pg/mL	2 folds	2.75 pg/mL	a more significant effect	superior to that in the reference 1 #benvitimod group
3.2 ± 1.2 fold	10.6 ± 1.0 fold	benvitimod >2 #>6 #	CC(C)c1c(O)cc(/C=C/c2ccccc2)cc1O [Reference 1#, Benvitimod, reference compound]	2559.02 pg/mL		2426.93 pg/mL	9.30 pg/mL		5.63 pg/mL	good therapeutic effects	the conditions were improved
